Experimental data published in patent US7498292B2, “Combinatorial libraries of autoinducer analogs, autoinducer agonists and antagonists, and methods of use thereof” (The Research Foundation of State University of New York, priority 2002, dated 2009).

Tests used:
PAO1 (pTdK-GFP) biofilm = assay: static biofilm assay, PAO1 (pTdK-GFP); format: cell-based, P. aeruginosa
Protocol: Compound 3 was tested for its effect on biofilm development in a 24-hour assay that looks at the early stages of biofilm formation. […] Cultures were grown at 37° C. with shaking for 30 minutes, and then allowed to sit at 37° C. for an additional 23.5 hours. Coverslips were then rinsed and placed on slides for visualization using an MRC1024 Laser Scanning Microscope (BioRad) with a Nikon Fluor-60X oil emersion objective lens (NA=1.4), 488 nm Argon Laser and OG515 filter.
The same assay was run with strain PAO-1 (pTdK-GFP), and no exogenous autoinducers were added. […] The above results provide additional evidence that compound 3 interferes with QS signaling and reduces the production of important virulence factors.

lac promoter = assay: GFP expression from lac promoter, PAO-JP2 (pTdK-GFP) (specificity control); format: cell-based, P. aeruginosa; settings: lasI promoter replaced with a lac promoter
RhlR = assay: rhlI-gfp reporter antagonist assay, PAO-JP2 (prhlI-LVAgfp); format: cell-based, P. aeruginosa; settings: 50 μM compound, competing against 1 μM AI1 and 10 μM AI2
Protocol: Each compound in the library was tested for antagonist activity using the same reporter strain, PAO-JP2 (plasI-LVAgfp) (de Kievit et al., Appl. Environ. Microbiol. 67:865-1873 (2001), which is hereby incorporated by reference in its entirety) to find compounds that could compete against AI1 and reduce GFP expression. The methods were the same as described in Example 2 (GFP Reporter Assay), except that 1 μM AI1 was added to each well in combination with the library compound. The fluorescence/OD600 of each compound competing against AI1 was reported relative to the fluorescence/OD600 of the positive control of AI1 alone, which was set to 1. When strain PAO-JP2 (prhlI-LVAgfp) was used, the positive control was 1 μM AI1 and 10 μM AI2.
3- oxo-C12-D10 was synthesized in solution phase, where the natural side chain was coupled with D10 and purified by chromatography. To determine if the same structural motif can be applied to inhibition of the RhlR-AI2 interaction, C4-D10 was also synthesized. Assays were performed with both the lasI-gfp reporter PAO-JP2 (plasI-LVAgfp) and an RhlR-AI2 controlled rhlI-gfp reporter, PAO-JP2 (prhlI-LVAgfp) (FIGS. 10A-C) (de Kievit et al., Appl. Environ. Microbiol. 67:865-1873 (2001), which is hereby incorporated by reference in its entirety).
Reporter strains were grown overnight in LB plus 300 μg/ml carbenicillin at 37° C. and diluted to an OD600 of 0.1. Following an incubation of 1 hour, 200 μl of cell culture was added to individual wells of a 96 well plate containing appropriate amount of test compound(s). Plates were incubated for 6 hours and then scanned for fluorescence emission with a Molecular Imager (488 nm excitation and 695 nm bandpass filter). Fluorescence was quantified with ImageQuant software.
Next the ability of 2 and 3 to inhibit the rhlI-gfp reporter strain PAO-JP2 (prhlI-LVAgfp) was tested, since this expression is also AI1-dependent.

Elastase B [1] = assay: elastase (Elastin Congo Red) assay, strain PAO-JP2; format: cell-based, P. aeruginosa PAO-JP2; settings: PAO-JP2, 50 μM compound, 5 μM AI1 and 10 μM AI2
Protocol: (§1) Pyocyanin, elastase, and biofilm were assayed as previously described (Smith et al., Chem. Biol. 10:81-89 (2003), which is hereby incorporated by reference in its entirety). Elastase activity produced by P. aeruginosa in the presence of AIs and competing 3-oxo-C12-D10 was determined by measuring breakdown of the substrate Elastin Congo Red.
(§2) For the elastase B assay, cells (PAO-JP2) were grown overnight in PTSB media (5% Peptone, 0.1% Tryptic Soy Broth) at 37° C., washed and diluted to an OD600 of 0.05, grown to mid-log phase, washed again, and re-suspended to an OD600 of 0.05. The culture was then added to test tubes containing test compound(s) and grown for 6 hours. Elastase B activity was quantified by incubation of 100 μl of filtered culture supernatant with 5 mg Elastin Congo Red substrate and 1 ml of 10 mM Tris pH 7.2, 1 mM CaCl2 for 6 hours at 37° C. with agitation. Elastase B activity is represented by the OD495 of the enzyme assay following reaction quenching with EDTA and centrifugation to remove unreacted substrate, divided by the OD600 of the cell culture. The same assay was run with strain PAO-1, however no exogenous autoinducers were added.

Elastase B [2] = assay: elastase (Elastin Congo Red) assay, wild type strain PAO1; format: cell-based, P. aeruginosa PAO1; settings: wild type PAO1, 100 μM compound
Protocol: as §1, §2

pyocyanin = pyocyanin assay, strain PAO-JP2; format: cell-based, P. aeruginosa PAO-JP2; settings: PAO-JP2, 25 μM each of AI1 and AI2, 18 hours
Protocol: For the pyocyanin assay, cells were grown overnight in LB then washed in fresh media and diluted to an OD600 of 0.05. This culture was grown for 3-4 hours to mid-log phase (OD600 of 0.3-0.5), then diluted to an OD600 of 0.05, and aliquoted to test tubes containing an appropriate amount of test compound(s). Following 18 hours of growth, pyocyanin was extracted from filtered culture supernatants and quantified using standard methods (Essar et al., J. Bacteriol. 172:884-900 (1990), which is hereby incorporated by reference in its entirety).

CCCCCCCCCC(=O)CC(=O)NC1CCCCC1=O (racemic) [Compound 3, N-(2-oxocyclohexyl)-3-oxododecanamide]
effect on biofilm morphology (PAO1 (pTdK-GFP) biofilm; wild type PAO1): noticeable difference in biofilm morphology | effect on biofilm formation (PAO1 (pTdK-GFP) biofilm; wild type PAO1, no exogenous autoinducers): less obvious | inhibition of GFP expression from lac promoter (lac promoter): inability to inhibit GFP expression | inhibition of GFP expression (rhlI-gfp) (RhlR): greater than 60% | elastase activity, % of the positive control level (Elastase B [1]): 60% | elastase activity, % of the control level (Elastase B [2]): 30% | effect on pyocyanin production (pyocyanin): nearly complete inhibition
